# In US9187429B2, “Phenyl-tetrahydroisoquinoline derivatives” (Hoffmann-La Roche Inc., priority 2012, dated 2015):
# pEC50: −log10 of the molar value.
# Columns and labels:
# human CYP11B1 = human CYP11B1 (Homo sapiens (Human), UniProt P15538); test: G-402 cellular enzyme assay, human CYP11B1 (cortisol release); type: cell-based; settings: G-402 cells expressing human CYP11B1, 1 μM Deoxycortisol
# Excerpt: (§1) The expression plasmids contains the ORF for either human/cyno CYP11B1 or CYP11B2 under the control of a suitable promoter (CMV-promoter) and a suitable resistance marker (neomycin). Using standard techniques the expression plasmid is transfected into G-402 cells and these cells are then selected for expressing the given resistance markers. Individual cell-clones are then selected and assessed for displaying the desired enzymatic activity using 11-Deoxycorticosterone (Cyp 11B2) or 11-Deoxycortisol (Cyp 11B1) as a substrate.
# (§2) G-402 cells expressing CYP11 constructs were established as described above and maintained in McCoy's 5a Medium Modified, ATCC Catalog No. 30-2007 containing 10% FCS and 400 μg/ml G418 (Geneticin) at 37° C. under an atmosphere of 5% CO2/95% air. […] For assaying enzymatic activity, cells were plated onto 96 well plates and incubated for 16 h. An aliquot of the supernatant is then transferred and analyzed for the concentration of the expected product (Aldosterone for CYP11B2; Cortisol for CYP11B1). The concentrations of these steroids can be determined using HTRF assays from CisBio analyzing either Aldosterone or Cortisol.
# (§3) Inhibition of the release of produced steroids can be used as a measure of the respective enzyme inhibition by test compounds added during the cellular enzyme assay. The dose dependent inhibition of enzymatic activity by a compound is calculated by means of plotting added inhibitor concentrations (x-axes) vs. measured steroid/product level (y-axes). The inhibition is then calculated by fitting the following 4-parameter sigmoidal function (Morgan-Mercer-Flodin (MMF) model) to the raw data points using the least squares method:
# (§4) [formula] wherein, A is the maximum y value, B is the EC50 factor determined using XLFit, C is the minimum y value and D is the slope value.
# (§5) EC50 values for compounds claimed herein were tested with the G402-based assay system described. Cyp 11B2 enzyme activity was tested in presence of 1 μM Deoxycorticosterone and variable amounts of inhibitors; Cyp 11B1 enzyme activity was tested in presence of 1 μM Deoxycortisol and variable amounts of inhibitors.
# CYP11B2 = CYP11B2 (Homo sapiens (Human), UniProt P19099); test: G-402 cellular enzyme assay, human CYP11B2 (aldosterone release); type: cell-based; settings: G-402 cells expressing human CYP11B2, 1 μM Deoxycorticosterone
# CYP11B2, sequence (P19099 25-503): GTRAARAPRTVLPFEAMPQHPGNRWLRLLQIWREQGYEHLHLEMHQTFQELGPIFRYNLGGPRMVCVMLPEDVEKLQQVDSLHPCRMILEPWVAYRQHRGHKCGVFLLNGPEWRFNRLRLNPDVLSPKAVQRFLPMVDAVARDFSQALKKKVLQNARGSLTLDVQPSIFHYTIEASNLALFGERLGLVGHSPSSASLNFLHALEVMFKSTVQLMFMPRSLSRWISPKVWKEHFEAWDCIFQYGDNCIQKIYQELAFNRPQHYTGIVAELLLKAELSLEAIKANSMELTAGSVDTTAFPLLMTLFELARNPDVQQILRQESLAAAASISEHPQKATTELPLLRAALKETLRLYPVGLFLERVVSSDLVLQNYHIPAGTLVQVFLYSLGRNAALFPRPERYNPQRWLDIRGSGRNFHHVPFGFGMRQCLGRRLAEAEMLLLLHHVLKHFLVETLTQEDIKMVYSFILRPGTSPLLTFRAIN
# Excerpt: as §1, §2, §3, §4, §5
# human CYP11B1, sequence (P15538 25-503): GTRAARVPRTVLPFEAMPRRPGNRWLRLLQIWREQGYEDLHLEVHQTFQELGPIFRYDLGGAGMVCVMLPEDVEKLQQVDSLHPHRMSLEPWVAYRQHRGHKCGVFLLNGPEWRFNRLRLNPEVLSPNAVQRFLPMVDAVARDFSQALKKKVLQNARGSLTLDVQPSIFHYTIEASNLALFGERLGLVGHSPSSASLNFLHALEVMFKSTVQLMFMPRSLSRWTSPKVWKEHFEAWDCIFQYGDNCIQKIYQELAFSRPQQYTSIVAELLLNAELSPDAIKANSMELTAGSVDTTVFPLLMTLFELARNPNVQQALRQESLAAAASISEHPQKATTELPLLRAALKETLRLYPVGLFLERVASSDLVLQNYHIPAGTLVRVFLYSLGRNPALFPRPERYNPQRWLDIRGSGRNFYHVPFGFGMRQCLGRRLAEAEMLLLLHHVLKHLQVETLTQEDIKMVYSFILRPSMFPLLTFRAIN
Structure (SMILES),pEC50 (human CYP11B1),pEC50 (CYP11B2)
"N#Cc1ccc(-c2cncc3c2CCCC3N)cc1 (racemic) [Example 1, (rac)-4-(8-Amino-5,6,7,8-tetrahydroisoquinolin-4-yl)benzonitrile]",6.76,7.38
"CCS(=O)(=O)NC1CCCc2c(-c3ccc(C#N)cc3)cncc21 (racemic) [Example 2, (rac)-N-(4-(4-Cyanophenyl)-5,6,7,8-tetrahydroisoquinolin-8-yl)ethanesulfonamide]",5.96,6.68
"CCCNS(=O)(=O)NC1CCCc2c(-c3ccc(C#N)cc3)cncc21 (racemic) [Example 3, (rac)-N-[4-(4-Cyanophenyl)-5,6,7,8-tetrahydroisoquinolin-8-yl]-N′-propylsulfuric diamide]",6.54,7.28
"CCNC(=O)NC1CCCc2c(-c3ccc(C#N)cc3)cncc21 (racemic) [Example 4, (rac)-1-(4-(4-Cyanophenyl)-5,6,7,8-tetrahydroisoquinolin-8-yl)-3-ethylurea]",5.66,6.66
"CCC(=O)NC1CCCc2c(-c3ccc(C#N)cc3)cncc21 (racemic) [Example 5, (rac)-N-(4-(4-Cyanophenyl)-5,6,7,8-tetrahydroisoquinolin-8-yl)propionamide]",6.12,
"CC(=O)NC1CCCc2c(-c3ccc(C#N)cc3)cncc21 (racemic) [Example 8, (rac)-N-(4-(4-Cyanophenyl)-5,6,7,8-tetrahydroisoquinolin-8-yl)acetamide]",6.37,7.37
"CCOC(=O)NC1CCCc2c(-c3ccc(C#N)cc3)cncc21 (racemic) [Example 10, (rac)-Ethyl 4-(4-cyanophenyl)-5,6,7,8-tetrahydroisoquinolin-8-ylcarbamate]",6.18,7.17
"N#Cc1ccc(-c2cncc3c2CCCC3O)cc1 (racemic) [Example 11, (rac)-4-(8-Hydroxy-5,6,7,8-tetrahydroisoquinolin-4-yl)benzonitrile]",7.51,8.10
"CCNC(=O)OC1CCCc2c(-c3ccc(C#N)cc3)cncc21 (racemic) [Example 12, (rac)-4-(4-Cyanophenyl)-5,6,7,8-tetrahydroisoquinolin-8-yl ethylcarbamate]",7.52,7.60
"COC1CCCc2c(-c3ccc(C#N)cc3)cncc21 (racemic) [Example 13, (rac)-4-(8-Methoxy-5,6,7,8-tetrahydroisoquinolin-4-yl)benzonitrile]",8.10,8.00
"Cc1ccc(C2(O)CCCc3c(-c4ccc(C#N)cc4)cncc32)cc1C (racemic) [Example 14, (rac)-4-(8-(3,4-Dimethylphenyl)-8-hydroxy-5,6,7,8-tetrahydroisoquinolin-4-yl)benzonitrile]",7.14,7.80
"CCC(=O)NC1CCc2c(-c3ccc(C#N)cc3)cncc21 (racemic) [Example 17, (rac)-N-(4-(4-Cyanophenyl)-6,7-dihydro-5H-cyclopenta[c]pyridin-7-yl)propionamide]",6.29,7.66
"CCC(=O)NC1CCCc2c(-c3ccc(F)c(Cl)c3)cncc21 (racemic) [Example 20, (rac)-N-(4-(3-Chloro-4-fluorophenyl)-5,6,7,8-tetrahydroisoquinolin-8-yl)propionamide]",6.32,7.62
"CCC(=O)NC1CCCc2c(-c3ccc(C(F)(F)F)cc3)cncc21 (racemic) [Example 21, (rac)-N-(4-(4-(Trifluoromethyl)phenyl)-5,6,7,8-tetrahydroisoquinolin-8-yl)propionamide]",5.15,7.09
"CCC(=O)NC1CCCc2c(-c3ccc(Cl)cc3)cncc21 (racemic) [Example 24, (rac)-N-(4-(4-Chlorophenyl)-5,6,7,8-tetrahydroisoquinolin-8-yl)propionamide]",5.85,7.51
"CCC(=O)NC1CCCc2c(-c3ccc(F)c(C)c3)cncc21 (racemic) [Example 27, (rac)-N-(4-(4-Fluoro-3-methylphenyl)-5,6,7,8-tetrahydroisoquinolin-8-yl)propionamide]",6.20,7.85

Structure (SMILES),pEC50 (human CYP11B1),pEC50 (CYP11B2)
"CCC(=O)NC1CCCc2c(-c3ccc(Cl)cc3F)cncc21 (racemic) [Example 30, (rac)-N-(4-(4-Chloro-2-fluorophenyl)-5,6,7,8-tetrahydroisoquinolin-8-yl)propionamide]",5.82,7.55
"CCC(=O)NC1CCCc2c(-c3ccc(C(F)(F)F)cc3F)cncc21 (racemic) [Example 33, (rac)-N-(4-(2-Fluoro-4-(trifluoromethyl)phenyl)-5,6,7,8-tetrahydroisoquinolin-8-yl)propionamide]",4.83,6.80
"CCC(=O)NC1CCCc2c(-c3ccc(Cl)c(F)c3)cncc21 (racemic) [Example 36, (rac)-N-(4-(4-Chloro-3-fluorophenyl)-5,6,7,8-tetrahydroisoquinolin-8-yl)propionamide]",5.99,7.85
"CCC(=O)NC1CCCc2c(-c3ccc(C(F)(F)F)c(F)c3)cncc21 (racemic) [Example 39, (rac)-N-(4-(3-Fluoro-4-(trifluoromethyl)phenyl)-5,6,7,8-tetrahydroisoquinolin-8-yl)propionamide]",5.49,7.54
"CCC(=O)NC1CCCc2c(-c3ccc(F)cc3F)cncc21 (racemic) [Example 42, (rac)-N-(4-(2,4-Difluorophenyl)-5,6,7,8-tetrahydroisoquinolin-8-yl)propionamide]",5.62,6.96
"CCC(=O)NC1CCCc2c(-c3cc(F)c(F)cc3F)cncc21 (racemic) [Example 43, (rac)-N-(4-(2,4,5-Trifluorophenyl)-5,6,7,8-tetrahydroisoquinolin-8-yl)propionamide]",5.94,7.57
"CCC(=O)NC1CCCc2c(-c3ccc(C#N)cc3)cncc21 (single isomer, unassigned; (+)) [Example 7, (+)-(R or S)—N-(4-(4-Cyanophenyl)-5,6,7,8-tetrahydroisoquinolin-8-yl)propionamide]",6.58,
"C[C@@H](O)C(=O)NC1CCCc2c(-c3ccc(C(F)(F)F)cc3)cncc21 (single isomer, unassigned; (+)) [Example 47, (+)-(R)-2-Hydroxy-N—[(R or S)-4-(4-trifluoromethyl-phenyl)-5,6,7,8-tetrahydro-isoquinolin-8-yl]-propionamide]",,5.24
"CCC(=O)NC1CCCc2c(-c3ccc(C#N)cc3)cncc21 (single isomer, unassigned; (-)) [Example 6, (−)-(S or R)—N-(4-(4-Cyanophenyl)-5,6,7,8-tetrahydroisoquinolin-8-yl)propionamide]",4.93,
"CCC(=O)NC1CCCc2c(-c3ccc(C(F)(F)F)cc3)cncc21 (single isomer, unassigned; (-)) [Example 22, (−)-(S or R)—N-(4-(4-(Trifluoromethyl)phenyl)-5,6,7,8-tetrahydroisoquinolin-8-yl)propionamide]",,5.20
"CCC(=O)NC1CCCc2c(-c3ccc(Cl)cc3F)cncc21 (single isomer, unassigned; (-)) [Example 31, (−)-(S or R)—N-(4-(4-Chloro-2-fluorophenyl)-5,6,7,8-tetrahydroisoquinolin-8-yl)propionamide]",,5.91
"CCC(=O)NC1CCc2c(-c3ccc(C(F)(F)F)cc3)cncc21 (single isomer, unassigned; (-)) [Example 50, (−)-(S or R)—N-(4-(4-(Trifluoromethyl)phenyl)-6,7-dihydro-5H-cyclopenta[c]pyridin-7-yl)propionamide]",,5.24
"C[C@@H](O)C(=O)NC1CCc2c(-c3ccc(C(F)(F)F)cc3)cncc21 (single isomer, unassigned; (-)) [Example 53, (−)-(R)-2-Hydroxy-N—((S or R)-4-(4-(trifluoromethyl)phenyl)-6,7-dihydro-5H-cyclopenta[c]pyridin-7-yl)propanamide]",,5.04
"CCC(=O)NC1CCc2c(-c3ccc(F)c(C)c3)cncc21 (single isomer, unassigned; (-)) [Example 59, (−)-(S or R)—N-(4-(4-Fluoro-3-methylphenyl)-6,7-dihydro-5H-cyclopenta[c]pyridin-7-yl)propionamide]",,5.78
"CCS(=O)(=O)NC1CCc2c(-c3ccc(C(F)(F)F)c(F)c3)cncc21 (single isomer, unassigned; (-)) [Example 72, (−)-(S or R)—N-(4-(3-Fluoro-4-(trifluoromethyl)phenyl)-6,7-dihydro-5H-cyclopenta[c]pyridin-7-yl)ethanesulfonamide]",,4.78
